According to article PMC10284550, “Accelerating drug target inhibitor discovery with a deep generative foundation model” (Science Advances, 2023):
Entries after “also recorded” stand apart in the source; their conditions may differ.

Target: SARS-CoV-2 spike glycoprotein ectodomain (Severe acute respiratory syndrome coronavirus 2, UniProt P0DTC2, K986P/R682G/R683S/R685S/V987P)
Assay type: binding
Conditions: pH 7.5

## C#CCN1CCC(CCNc2ccnc3ccccc23)CC1 [GEN727]
  Effect on stability of the spike (thermofluor): appeared to reduce the speed of the transition of the spike to a less stable form; also recorded: somewhat destabilized the spike
